Test results: article PMC7044277 (Nature Communications, 2020)
Where “and” joins values, the source holds several entries; their conditions need not be identical. Identical values can stand only once.

What was measured:
Type in all cases: cell-based
320 non-olfactory GPCRs [1] = biological target: T1, 320 non-olfactory GPCRs (Homo sapiens, UniProt P35410); details: receptor MAS1L; replicate values, Fig_4g
T1 construct: expressed in transfected cells; host or cells: HTLA cells

320 non-olfactory GPCRs [2] = biological target: T2, 320 non-olfactory GPCRs (Homo sapiens, UniProt Q99705); details: receptor MCHR1R; replicate values, Fig_4g
T2 construct: expressed in transfected cells; host or cells: HTLA cells
T2 sequence (Q99705 whole entry): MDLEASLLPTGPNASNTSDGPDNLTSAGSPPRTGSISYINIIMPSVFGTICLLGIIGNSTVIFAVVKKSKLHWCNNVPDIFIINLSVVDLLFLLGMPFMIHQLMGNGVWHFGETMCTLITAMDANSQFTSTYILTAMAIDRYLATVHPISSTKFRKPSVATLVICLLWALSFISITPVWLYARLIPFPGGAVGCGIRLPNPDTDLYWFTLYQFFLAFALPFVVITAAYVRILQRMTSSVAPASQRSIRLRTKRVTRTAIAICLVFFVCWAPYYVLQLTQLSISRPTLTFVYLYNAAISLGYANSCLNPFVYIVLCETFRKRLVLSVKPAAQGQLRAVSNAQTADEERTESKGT

320 non-olfactory GPCRs [3] = biological target: 320 non-olfactory GPCRs (Homo sapiens, UniProt Q96LA9); details: receptor MRGPRX4; replicate values, Fig_4g
Chain of 320 non-olfactory GPCRs (Homo sapiens, UniProt Q96LA9) (Q96LA9 whole entry): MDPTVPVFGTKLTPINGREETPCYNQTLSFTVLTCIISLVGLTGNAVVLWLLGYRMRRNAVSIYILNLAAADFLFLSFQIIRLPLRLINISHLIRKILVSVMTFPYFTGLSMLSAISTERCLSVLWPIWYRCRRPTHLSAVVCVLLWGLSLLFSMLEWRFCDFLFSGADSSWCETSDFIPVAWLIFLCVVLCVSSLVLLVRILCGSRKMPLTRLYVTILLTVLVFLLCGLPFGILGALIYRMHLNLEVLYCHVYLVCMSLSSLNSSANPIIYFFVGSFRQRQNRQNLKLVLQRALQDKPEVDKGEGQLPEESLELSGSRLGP

320 non-olfactory GPCRs [4] = biological target: T3, 320 non-olfactory GPCRs (Homo sapiens, UniProt Q8IZF7)
T3 construct: expressed in transfected cells; host or cells: HTLA cells
T3 sequence (Q8IZF7 whole entry): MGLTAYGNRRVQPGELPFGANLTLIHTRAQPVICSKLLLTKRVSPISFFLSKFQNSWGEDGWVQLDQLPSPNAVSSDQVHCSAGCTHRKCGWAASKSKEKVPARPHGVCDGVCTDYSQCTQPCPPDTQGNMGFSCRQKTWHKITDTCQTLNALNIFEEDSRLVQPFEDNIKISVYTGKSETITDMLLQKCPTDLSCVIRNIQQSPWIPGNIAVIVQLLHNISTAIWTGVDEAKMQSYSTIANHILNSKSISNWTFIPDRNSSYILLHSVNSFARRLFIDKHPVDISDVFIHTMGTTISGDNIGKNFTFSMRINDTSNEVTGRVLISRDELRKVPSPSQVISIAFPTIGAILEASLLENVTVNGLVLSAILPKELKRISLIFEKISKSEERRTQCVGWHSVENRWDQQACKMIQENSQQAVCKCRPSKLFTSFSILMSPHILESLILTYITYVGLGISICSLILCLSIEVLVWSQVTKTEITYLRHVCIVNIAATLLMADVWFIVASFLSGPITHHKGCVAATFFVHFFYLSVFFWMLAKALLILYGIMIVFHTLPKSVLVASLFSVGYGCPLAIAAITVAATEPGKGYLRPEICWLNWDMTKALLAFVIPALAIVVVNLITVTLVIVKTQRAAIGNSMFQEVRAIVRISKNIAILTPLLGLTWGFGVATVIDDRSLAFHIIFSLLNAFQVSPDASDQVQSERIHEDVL
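Throughout, for Fold of Basal: compound tested at 1 µM final concentration.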
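Throughout, for GPCRome agonism screen response: fold over basal response of each receptor without drug.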

T1 sequence (P35410 whole entry): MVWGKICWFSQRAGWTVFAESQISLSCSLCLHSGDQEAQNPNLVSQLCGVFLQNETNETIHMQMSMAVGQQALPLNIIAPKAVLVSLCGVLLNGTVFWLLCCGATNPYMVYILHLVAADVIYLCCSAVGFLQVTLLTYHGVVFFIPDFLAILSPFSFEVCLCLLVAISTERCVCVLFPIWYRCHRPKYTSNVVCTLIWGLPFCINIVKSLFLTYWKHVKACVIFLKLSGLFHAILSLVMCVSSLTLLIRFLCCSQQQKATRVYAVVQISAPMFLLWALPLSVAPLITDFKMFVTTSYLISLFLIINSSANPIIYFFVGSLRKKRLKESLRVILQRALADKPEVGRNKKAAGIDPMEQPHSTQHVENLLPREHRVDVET

With `CCOc1cccc2cc(C(C)NCC3(O)CCCCC3)oc12` (stereo not shown) [O4LE6] the “GPCRome agonism screen response” value (320 non-olfactory GPCRs [1]) was 0.5688 and 0.6917 and 1.207 and 0.7272, the “GPCRome agonism screen response” value (320 non-olfactory GPCRs [2]) was 0.7534 and 1.295 and 1.833 and 1.448 and the “GPCRome agonism screen response” value (320 non-olfactory GPCRs [3]) was 0.3813 and 0.7022 and 0.804 and 1.112. For the same compound, the “Fold of Basal” value (320 non-olfactory GPCRs [4]) was 0.7426 and 0.9005 and 0.7298 and 0.9165.
